# Test results from paper PMC4425616 (Nature medicine, 2015).
# Read-outs that look alike come from different tables or passages of the source.
# What was measured:
# Pin1 [1] = molecular target: T1, Pin1 (Homo sapiens, UniProt Q13526); assay: Photoaffinity labeling of Pin1 with [3H]ATRA; format: binding; settings: SDS gels
# Pin1 [2] = molecular target: T1, Pin1; format: binding; settings: incubation 0.5 hour
# breast cancer cells = assay: Growth and Pin1 degradation in breast cancer cells, combinations with ATRA; format: cell-based, human
# PML-RARα [3] = assay: Immunoblotting for PML-RARα in NB4 cells; format: cell-based, human; settings: 72 h
# Pin1 [4] = molecular target: T1, Pin1; assay: Immunoblotting for Pin1 in NB4 cells; format: cell-based; settings: 72 h
# human APL NB4 cells = assay: APL cell differentiation; format: cell-based; settings: 72 h
# [5] = system: APL cells isolated from hCG-PML-RARα transgenic mice; settings: 3 weeks treatment
# Pin1 [6] = molecular target: T1, Pin1; assay: Binding of
# [7] = molecular target: FKBP12 (FK506-binding protein 12) (Homo sapiens, UniProt P62942); assay: Binding of fluorescently-labeled pTide to FKBP12
# Pin1 [8] = molecular target: T1, Pin1; settings: cited from earlier work
# cyclophilin = assay: Chymotrypsin coupled PPIase activity assay; format: biochemical
# FKBP12 = FKBP12 (Homo sapiens, UniProt P62942); assay: Chymotrypsin coupled PPIase activity assay; format: biochemical
# Pin1 WT MEFs = assay: MTT cell growth assay; format: cell-based, mouse; settings: 72 h
# Pin1 KO MEFs = assay: MTT cell growth assay; format: cell-based, mouse; settings: 72 h, compared with WT MEFs
# Pin1 [9] = molecular target: Pin1 (Mus musculus, UniProt Q9QUR7); assay: Pin1 protein, mRNA and half-life in MEFs; format: cell-based; settings: for Pin1 protein half-life: 50 μM, 24 h, cycloheximide chase
# NIH 3T3 cells = assay: Centrosome amplification induced by Pin1 overexpression; format: cell-based; settings: 72 h
# cyclin D1 promoter = assay: Cyclin D1 promoter-driven luciferase reporter assay; format: cell-based; settings: SKBR3 cells, 72 h
# SKBR3 cells = assay: Foci formation assay; format: cell-based; settings: 48 h
# Pin1 [10] = molecular target: T1, Pin1; assay: Immunostaining of bone marrow of APL patients treated with ATRA; format: in vivo
# PML-RARα [11] = assay: as above; format: in vivo, human
# MCF10A cells = assay: Colorimetric MTT assay; format: cell-based, human; settings: 72 h
# HMLE cells = assay: Colorimetric MTT assay; format: cell-based, human; settings: 72 h
# [12] = system: Pin1 and its substrate oncogenes and tumor suppressors; format: cell-based, human; settings: 72 hr
# MDA-MB-231 cells = assay: MDA-MB-231 xenograft in nude mice; format: in vivo
# MDA-MB-468 cells = assay: MDA-MB-468 xenograft in nude mice; format: in vivo; settings: ATRA-releasing pellets
# [13] = standard doses in human patients; cited from earlier work
# [14] = three ATRA-sensitive cancer cell lines
# T1 sequence (Q13526 whole entry): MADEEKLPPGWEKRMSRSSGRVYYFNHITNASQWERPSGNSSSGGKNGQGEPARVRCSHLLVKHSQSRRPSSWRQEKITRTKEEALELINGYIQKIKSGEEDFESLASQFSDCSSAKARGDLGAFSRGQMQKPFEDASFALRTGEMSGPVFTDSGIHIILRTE
# Chain of Pin1 (Mus musculus, UniProt Q9QUR7) (Q9QUR7 whole entry): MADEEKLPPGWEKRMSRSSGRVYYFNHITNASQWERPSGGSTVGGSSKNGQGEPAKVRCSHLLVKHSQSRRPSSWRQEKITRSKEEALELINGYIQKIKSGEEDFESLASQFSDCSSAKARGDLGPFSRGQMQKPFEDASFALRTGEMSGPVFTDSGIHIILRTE
# Chain of FKBP12 (P62942 whole entry, species assumed): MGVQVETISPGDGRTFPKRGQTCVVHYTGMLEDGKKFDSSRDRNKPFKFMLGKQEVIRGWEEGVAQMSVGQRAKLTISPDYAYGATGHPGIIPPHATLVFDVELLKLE
# Chain of FKBP12 (FK506-binding protein 12) (P62942 whole entry, species assumed): as above
compound,measurement,setting,value
"CC1=C(/C=C/C(C)=C/C=C/C(C)=C/C(=O)O)C(C)(C)CCC1 [[^3H]-ATRA, all-trans-[11,12-3H]retinoic acid]",Kd,Pin1 [1],0.8 µM
CC1=C(/C=C/C(C)=C/C=C/C(C)=C/C(=O)Nc2ccc(O)cc2)C(C)(C)CCC1 [fenretinide],Pin1 binding (FP assay),Pin1 [2],only marginal Pin1 binding
CC1=C(/C=C/C(C)=C/C=C/C(C)=C/CO)C(C)(C)CCC1 [retinol],Pin1 binding (FP assay),Pin1 [2],totally inactive
Clc1cccc(C(c2ccc3[nH]cnc3c2)n2ccnc2)c1 (centres unmarked) [liarazole],effect in combination with ATRA on cell growth,breast cancer cells,generally additive effects with ATRA
CCCCCCCOc1cc2c(cc1/C(C)=C/c1ccc(C(=O)O)cc1)C(C)(C)CCS2(=O)=O [Ro-415253],Pin1 binding (FP assay),Pin1 [2],minimal Pin1 binding
same,effect on the ability of ATRA to induce Pin1 degradation or inhibit proliferation,breast cancer cells,neither had obvious effects
O=C1C=CC(=O)c2c(O)cccc21 [Juglone],PML-RARα abundance,PML-RARα [3],dose-dependently reduced PML-RARα
same,Pin1 abundance,Pin1 [4],inhibited Pin1 without degrading it
same,induction of APL cell differentiation,human APL NB4 cells,neither Pin1 inhibitors nor Pin1 shRNA induced human APL cell differentiation
same,PML-RARα in the bone marrow,[5],effectively reduced PML-RARα in the bone marrow
same,condition of treated mice,[5],rather sick
same,spleen weights,[5],spleen weights nearly at basal levels
CC1=C(/C=C/C(C)=C/C=C/C(C)=C/C=O)C(C)(C)CCC1 [retinal],Pin1 binding (FP assay),Pin1 [2],totally inactive
Bth-D-phos.Thr-Pip-Nal [pTide],binding of fluorescently-labeled pTide to Pin1,Pin1 [6],bound to Pin1
same,binding of fluorescently-labeled pTide to FKBP12,[7],not to FKBP12
same,Kd,Pin1 [8],0.0012 µM
C=C(c1ccc(C(=O)O)cc1)c1cc2c(cc1C)C(C)(C)CCC2(C)C [bexarotene],Pin1 binding (FP assay),Pin1 [2],only marginal Pin1 binding
"CC1=C(/C=C/C(C)=C/C=C/C(C)=C/C(=O)O)C(C)(C)CCC1 [ATRA, all-trans retinoic acid]",Pin1 binding (FP assay),Pin1 [2],most potent
same,inhibition of cyclophilin PPIase activity,cyclophilin,neither inhibited
same,inhibition of FKBP12 PPIase activity,FKBP12,neither inhibited
same,inhibition of growth,Pin1 WT MEFs,Relatively high concentrations of ATRA were required
same,inhibition of growth,Pin1 KO MEFs,more resistant to ATRA
same,Pin1 protein half-life,Pin1 [9],reduced Pin1 protein half-life
same,Pin1 mRNA levels,"Pin1 [9]; 72 h, quantitative RT-PCR",no obvious effects
same,Pin1 protein abundance,"Pin1 [9]; WT Pin1, 72 h, immunoblotting",dose-dependently down-regulated
same,inhibition of Pin1 overexpression-induced centrosome amplification,NIH 3T3 cells,dose-dependently and fully inhibited
same,inhibition of Pin1-induced activation of the cyclin D1 promoter,cyclin D1 promoter,dose-dependently and fully inhibited
same,inhibition of Pin1-enhanced foci formation,SKBR3 cells,dose-dependently and fully inhibited
same,PML-RARα abundance,PML-RARα [3],dose-dependently reduced PML-RARα
same,Pin1 remaining after treatment,Pin1 [10]; 3 days of ATRA treatment,~ 40%
same,Pin1 remaining after treatment,Pin1 [10]; 10 days of ATRA treatment,< 10%
same,PML-RARα remaining after treatment,PML-RARα [11]; 3 days of ATRA treatment,~ 40%
same,PML-RARα remaining after treatment,PML-RARα [11]; 10 days of ATRA treatment,< 10%
same,"cell proliferation, susceptibility to ATRA",MCF10A cells,highly resistant to ATRA
same,"cell proliferation, susceptibility to ATRA",HMLE cells,highly resistant to ATRA
same,effects on Pin1 and substrate proteins,[12]; MCF10A cells,no appreciable effects
same,"abundance of Pin1 and substrate oncogenes (cyclin D1, HER2, ERα, Akt, NFκB p65, c-Jun, PKM2)",[12]; [14],dose-dependent decrease in abundance of Pin1 and its substrate oncogenes
same,"abundance of Pin1 substrate tumor suppressors (Smad2/3, SMRT)",[12]; [14],increase in abundance of Pin1 substrate tumor suppressors
same,antitumor activity,MDA-MB-231 cells; 33.0 μmol/kg intraperitoneally 3 times a week for 8 weeks,only modest antitumor activity
same,growth of tumors from MDA-MB-231 cells stably expressing Pin1,MDA-MB-231 cells; ATRA implants for 7 weeks,effectively inhibited by ATRA in a dose-dependent manner
same,abundance of Pin1 and cyclin D1 in tumors,MDA-MB-231 cells; ATRA-releasing pellets,reduced abundance of Pin1 and its substrate cyclin D1
same,abundance of Pin1 and cyclin D1 in tumors,MDA-MB-468 cells,reduced abundance of Pin1 and its substrate cyclin D1
same,drug concentration produced,[13],1200 nM
same,PML-RARα in the bone marrow,[5],effectively reduced PML-RARα in the bone marrow
same,Pin1 levels in the bone marrow,[5],reduced Pin1 levels in the bone marrow
same,spleen weights,[5],spleen weights nearly at basal levels
CCOC(=O)CN1C(=O)c2ccc3c4c(ccc(c24)C1=O)C(=O)N(CC(=O)OCC)C3=O [PiB],PML-RARα abundance,PML-RARα [3],dose-dependently reduced PML-RARα
same,Pin1 abundance,Pin1 [4],inhibited Pin1 without degrading it
same,induction of APL cell differentiation,human APL NB4 cells,neither Pin1 inhibitors nor Pin1 shRNA induced human APL cell differentiation
CC(=O)OC/C=C(C)/C=C/C=C(C)/C=C/C1=C(C)CCCC1(C)C [retinyl acetate],Pin1 binding (FP assay),Pin1 [2],totally inactive
O=C(O[C@@H]1Cc2c(O)cc(O)cc2O[C@@H]1c1cc(O)c(O)c(O)c1)c1cc(O)c(O)c(O)c1 [EGCG],PML-RARα abundance,PML-RARα [3],dose-dependently reduced PML-RARα
same,Pin1 abundance,Pin1 [4],inhibited Pin1 without degrading it
same,induction of APL cell differentiation,human APL NB4 cells,neither Pin1 inhibitors nor Pin1 shRNA induced human APL cell differentiation
same,PML-RARα in the bone marrow,[5],effectively reduced PML-RARα in the bone marrow
same,condition of treated mice,[5],rather sick
same,spleen weights,[5],spleen weights nearly at basal levels
"CC1=C(/C=C/C(C)=C/C=C/C(C)=C\C(=O)O)C(C)(C)CCC1 [13cRA, 13-cis-retinoic acid]",inhibition of cyclophilin PPIase activity,cyclophilin,neither inhibited
same,inhibition of FKBP12 PPIase activity,FKBP12,neither inhibited
same,Pin1 protein half-life,Pin1 [9],reduced Pin1 protein half-life
